{"source": "paper PMC6020753", "about": "(Chemical Science, 2016)", "biological_target": "T1, NP1 (Rhodnius prolixus, UniProt Q26239)", "T1 construct": "recombinant in E. coli BL21(DE3), reconstituted ferriheme b protein, two Cys-Cys disulfides", "T1 sequence (Q26239 24-207)": "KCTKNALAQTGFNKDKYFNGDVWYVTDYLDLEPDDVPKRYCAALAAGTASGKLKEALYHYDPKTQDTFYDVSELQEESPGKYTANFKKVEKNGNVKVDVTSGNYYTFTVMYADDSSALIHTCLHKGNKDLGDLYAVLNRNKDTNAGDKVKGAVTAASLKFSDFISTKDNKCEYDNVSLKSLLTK", "experiment": "X-band EPR of nitrite complex", "type": "binding", "conditions": "300 mM NaNO2, 100 mM HEPES pH 7.2, 25% glycerol, 10 K; heme iron ligand"}
{"smiles": "O=NO", "note": "[nitrite]", "values": [{"measurement": "X-band EPR of nitrite complex", "result": "NP1[NO2^–] also has a HALS signal with a similar ratio"}]}
